# Assay results from ChEMBL document CHEMBL4765227, “Hit to lead optimization of a series of N-[4-(1,3-benzothiazol-2-yl)phenyl]acetamides as monoacylglycerol lipase inhibitors with potential anticancer activity” (Eur J Med Chem, 2016).
# Columns and labels:
# Assay type in all cases: functional
# Conditions in all cases: read-out: GI
# MDA-MB-231 = assay: Growth inhibition of human MDA-MB-231 cells at 10 uM incubated for 48 hrs by sulforhodamine B assay relative to control
# NCI-H522 = assay: Growth inhibition of human NCI-H522 cells at 10 uM incubated for 48 hrs by sulforhodamine B assay relative to control
# MDA-MB-435 = assay: Growth inhibition of human MDA-MB-435 cells at 10 uM incubated for 48 hrs by sulforhodamine B assay relative to control
# U-251 = assay: Growth inhibition of human U-251 cells at 10 uM incubated for 48 hrs by sulforhodamine B assay relative to control
# NCI-H226 = assay: Growth inhibition of human NCI-H226 cells at 10 uM incubated for 48 hrs by sulforhodamine B assay relative to control
# NCI-H23 = assay: Growth inhibition of human NCI-H23 cells at 10 uM incubated for 48 hrs by sulforhodamine B assay relative to control
# UACC-62 = assay: Growth inhibition of human UACC-62 cells at 10 uM incubated for 48 hrs by sulforhodamine B assay relative to control
# SR = assay: Growth inhibition of human SR cells at 10 uM incubated for 48 hrs by sulforhodamine B assay relative to control
# Hs-578T = assay: Growth inhibition of human Hs-578T cells at 10 uM incubated for 48 hrs by sulforhodamine B assay relative to control
# TK-10 = assay: Growth inhibition of human TK-10 cells at 10 uM incubated for 48 hrs by sulforhodamine B assay relative to control
# MDA-MB-468 = assay: Growth inhibition of human MDA-MB-468 cells at 10 uM incubated for 48 hrs by sulforhodamine B assay relative to control
# MCF7 = assay: Growth inhibition of human MCF7 cells at 10 uM incubated for 48 hrs by sulforhodamine B assay relative to control
# OVCAR-8 = assay: Growth inhibition of human OVCAR-8 cells at 10 uM incubated for 48 hrs by sulforhodamine B assay relative to control
# UO-31 = assay: Growth inhibition of human UO-31 cells at 10 uM incubated for 48 hrs by sulforhodamine B assay relative to control
# SF-295 = assay: Growth inhibition of human SF-295 cells at 10 uM incubated for 48 hrs by sulforhodamine B assay relative to control
# NCI-H322M = assay: Growth inhibition of human NCI-H322M cells at 10 uM incubated for 48 hrs by sulforhodamine B assay relative to control
# RXF 393 = assay: Growth inhibition of human RXF 393 cells at 10 uM incubated for 48 hrs by sulforhodamine B assay relative to control
# SN12C = assay: Growth inhibition of human SN12C cells at 10 uM incubated for 48 hrs by sulforhodamine B assay relative to control
# 786-0 = assay: Growth inhibition of human 786-0 cells at 10 uM incubated for 48 hrs by sulforhodamine B assay relative to control
# OVCAR-3 = assay: Growth inhibition of human OVCAR-3 cells at 10 uM incubated for 48 hrs by sulforhodamine B assay relative to control
# HL-60(TB) = assay: Growth inhibition of human HL-60(TB) cells at 10 uM incubated for 48 hrs by sulforhodamine B assay relative to control
# M14 = assay: Growth inhibition of human M14 cells at 10 uM incubated for 48 hrs by sulforhodamine B assay relative to control
# IGROV-1 = assay: Growth inhibition of human IGROV-1 cells at 10 uM incubated for 48 hrs by sulforhodamine B assay relative to control
# BT-549 = assay: Growth inhibition of human BT-549 cells at 10 uM incubated for 48 hrs by sulforhodamine B assay relative to control
# Malme-3M = assay: Growth inhibition of human Malme-3M cells at 10 uM incubated for 48 hrs by sulforhodamine B assay relative to control
# ACHN = assay: Growth inhibition of human ACHN cells at 10 uM incubated for 48 hrs by sulforhodamine B assay relative to control
# UACC-257 = assay: Growth inhibition of human UACC-257 cells at 10 uM incubated for 48 hrs by sulforhodamine B assay relative to control
# K562 = assay: Growth inhibition of human K562 cells at 10 uM incubated for 48 hrs by sulforhodamine B assay relative to control
# SK-MEL-5 = assay: Growth inhibition of human SK-MEL-5 cells at 10 uM incubated for 48 hrs by sulforhodamine B assay relative to control
# MOLT-4 = assay: Growth inhibition of human MOLT-4 cells at 10 uM incubated for 48 hrs by sulforhodamine B assay relative to control
# T47D = assay: Growth inhibition of human T47D cells at 10 uM incubated for 48 hrs by sulforhodamine B assay relative to control
# DU-145 = assay: Growth inhibition of human DU-145 cells at 10 uM incubated for 48 hrs by sulforhodamine B assay relative to control
# KM12 = assay: Growth inhibition of human KM12 cells at 10 uM incubated for 48 hrs by sulforhodamine B assay relative to control
# OVCAR-5 = assay: Growth inhibition of human OVCAR-5 cells at 10 uM incubated for 48 hrs by sulforhodamine B assay relative to control
# SNB-19 = assay: Growth inhibition of human SNB-19 cells at 10 uM incubated for 48 hrs by sulforhodamine B assay relative to control
# SF-268 = assay: Growth inhibition of human SF-268 cells at 10 uM incubated for 48 hrs by sulforhodamine B assay relative to control
# RPMI-8226 = assay: Growth inhibition of human RPMI-8226 cells at 10 uM incubated for 48 hrs by sulforhodamine B assay relative to control
# HCC 2998 = assay: Growth inhibition of human HCC 2998 cells at 10 uM incubated for 48 hrs by sulforhodamine B assay relative to control
# A549 = assay: Growth inhibition of human A549/ATCC cells at 10 uM incubated for 48 hrs by sulforhodamine B assay relative to control
# HT-29 = assay: Growth inhibition of human HT-29 cells at 10 uM incubated for 48 hrs by sulforhodamine B assay relative to control
# SF-539 = assay: Growth inhibition of human SF-539 cells at 10 uM incubated for 48 hrs by sulforhodamine B assay relative to control
# OVCAR-4 = assay: Growth inhibition of human OVCAR-4 cells at 10 uM incubated for 48 hrs by sulforhodamine B assay relative to control
# SK-OV-3 = assay: Growth inhibition of human SK-OV-3 cells at 10 uM incubated for 48 hrs by sulforhodamine B assay relative to control
# PC-3 = assay: Growth inhibition of human PC-3 cells at 10 uM incubated for 48 hrs by sulforhodamine B assay relative to control
structure (smiles),measurement,setting,value
O=C(Cn1cnc2ccccc21)Nc1ccc(-c2nc3ccccc3s2)cc1,inhibition of growth at 10 µM,MDA-MB-231,9.34%
same,inhibition of growth at 10 µM,NCI-H522,33.4%
same,inhibition of growth at 10 µM,MDA-MB-435,32.3%
same,inhibition of growth at 10 µM,U-251,30.6%
same,inhibition of growth at 10 µM,NCI-H226,36.9%
same,inhibition of growth at 10 µM,NCI-H23,51.5%
same,inhibition of growth at 10 µM,UACC-62,13%
same,inhibition of growth at 10 µM,SR,60%
same,inhibition of growth at 10 µM,Hs-578T,8.79%
same,inhibition of growth at 10 µM,TK-10,22.6%
same,inhibition of growth at 10 µM,MDA-MB-468,70.3%
same,inhibition of growth at 10 µM,MCF7,50.6%
same,inhibition of growth at 10 µM,OVCAR-8,28%
same,inhibition of growth at 10 µM,UO-31,35.4%
same,inhibition of growth at 10 µM,SF-295,56.7%
same,inhibition of growth at 10 µM,NCI-H322M,8.06%
same,inhibition of growth at 10 µM,RXF 393,6.89%
same,inhibition of growth at 10 µM,SN12C,16.2%
same,inhibition of growth at 10 µM,786-0,20.5%
same,inhibition of growth at 10 µM,OVCAR-3,35.8%
same,inhibition of growth at 10 µM,HL-60(TB),29.8%
same,inhibition of growth at 10 µM,M14,13.6%
same,inhibition of growth at 10 µM,IGROV-1,35.1%
same,inhibition of growth at 10 µM,BT-549,43.5%
same,inhibition of growth at 10 µM,Malme-3M,18.9%
same,inhibition of growth at 10 µM,ACHN,15.5%
same,inhibition of growth at 10 µM,UACC-257,37.9%
same,inhibition of growth at 10 µM,K562,66.4%
same,inhibition of growth at 10 µM,SK-MEL-5,70.9%
same,inhibition of growth at 10 µM,MOLT-4,44.2%
same,inhibition of growth at 10 µM,T47D,52.8%
same,inhibition of growth at 10 µM,DU-145,21.8%
same,inhibition of growth at 10 µM,KM12,24.9%
same,inhibition of growth at 10 µM,OVCAR-5,-5.63%
same,inhibition of growth at 10 µM,SNB-19,28.5%
same,inhibition of growth at 10 µM,SF-268,14.7%
same,inhibition of growth at 10 µM,RPMI-8226,62.6%
same,inhibition of growth at 10 µM,HCC 2998,24.9%
same,inhibition of growth at 10 µM,A549,39%
same,inhibition of growth at 10 µM,HT-29,12.7%
same,inhibition of growth at 10 µM,SF-539,22.9%
same,inhibition of growth at 10 µM,OVCAR-4,57.9%
same,inhibition of growth at 10 µM,SK-OV-3,15.1%
same,inhibition of growth at 10 µM,PC-3,33.3%
O=C(CNC1CCCCC1)Nc1ccc(-c2nc3ccccc3s2)cc1,inhibition of growth at 10 µM,MDA-MB-231,53.8%
same,inhibition of growth at 10 µM,NCI-H522,4.54%
same,inhibition of growth at 10 µM,MDA-MB-435,9.63%
same,inhibition of growth at 10 µM,U-251,34.9%
same,inhibition of growth at 10 µM,NCI-H226,19.7%
same,inhibition of growth at 10 µM,NCI-H23,23.8%
same,inhibition of growth at 10 µM,UACC-62,3.76%
same,inhibition of growth at 10 µM,SR,90.3%
same,inhibition of growth at 10 µM,Hs-578T,15.8%
same,inhibition of growth at 10 µM,TK-10,-2.86%
same,inhibition of growth at 10 µM,MDA-MB-468,64.1%
same,inhibition of growth at 10 µM,MCF7,72%
same,inhibition of growth at 10 µM,OVCAR-8,0.73%
same,inhibition of growth at 10 µM,UO-31,43.5%
same,inhibition of growth at 10 µM,SF-295,14.1%
same,inhibition of growth at 10 µM,NCI-H322M,8.27%
same,inhibition of growth at 10 µM,RXF 393,31.5%
same,inhibition of growth at 10 µM,SN12C,13.3%
same,inhibition of growth at 10 µM,786-0,29.4%
same,inhibition of growth at 10 µM,OVCAR-3,5.98%
same,inhibition of growth at 10 µM,HL-60(TB),33.2%
same,inhibition of growth at 10 µM,M14,10.6%
same,inhibition of growth at 10 µM,IGROV-1,-0.35%
same,inhibition of growth at 10 µM,BT-549,12.4%
same,inhibition of growth at 10 µM,Malme-3M,-5.44%
same,inhibition of growth at 10 µM,ACHN,0.89%
same,inhibition of growth at 10 µM,UACC-257,-4.65%
same,inhibition of growth at 10 µM,K562,50.5%
same,inhibition of growth at 10 µM,SK-MEL-5,9.16%
same,inhibition of growth at 10 µM,MOLT-4,45.9%
same,inhibition of growth at 10 µM,T47D,30.9%
same,inhibition of growth at 10 µM,DU-145,10.7%
same,inhibition of growth at 10 µM,KM12,16.1%
same,inhibition of growth at 10 µM,OVCAR-5,5.32%
same,inhibition of growth at 10 µM,SNB-19,9.04%
same,inhibition of growth at 10 µM,SF-268,21.6%
same,inhibition of growth at 10 µM,RPMI-8226,22.4%
same,inhibition of growth at 10 µM,HCC 2998,12.7%
same,inhibition of growth at 10 µM,A549,12%
same,inhibition of growth at 10 µM,HT-29,37.7%
same,inhibition of growth at 10 µM,SF-539,12.5%
same,inhibition of growth at 10 µM,OVCAR-4,15.6%
same,inhibition of growth at 10 µM,SK-OV-3,9.23%
same,inhibition of growth at 10 µM,PC-3,20.3%
